Source: ChEMBL document CHEMBL4800722, “Data for DCP probe BI 605906” (2021)

Legend:
[1] = molecular target: Bone morphogenetic protein receptor type-1B (Homo sapiens) (UniProt O00238); test: BMPR1B (ALK6) Invitrogen Lab (UK) kinase screen (BI); conditions: Compound concentration 1.0 uM
[2] = molecular target: MAP/microtubule affinity-regulating kinase 3 (Homo sapiens) (UniProt P27448); conditions: Compound concentration 1.0 uM
[3] = molecular target: Mitogen-activated protein kinase 1 (Homo sapiens) (UniProt P28482); test: MAPK2ERK2 DUNDEE kinase screen (BI); conditions: Mus musculus; Compound concentration 10.0 uM
[4] = molecular target: Ephrin type-A receptor 3 (Homo sapiens) (UniProt P29320); test: EPHA3 Invitrogen Lab (UK) kinase screen (BI); conditions: Compound concentration 1.0 uM
[5] = molecular target: Carbonic anhydrase (Homo sapiens) (UniProt P00918+P43166+P00915+P07451+P23280+O43570+Q9ULX7+Q16790+P22748+Q8N1Q1+Q9Y2D0+P35218); test: CANHYDRASE Eurofins SafetyScreen44 (BI); assay type: protein assay; conditions: Compound concentration 10.0 uM
[6] = molecular target: Mitogen-activated protein kinase 10 (Homo sapiens) (UniProt P53779); test: JNK3 ALPHA 1 DUNDEE kinase screen (BI); conditions: Compound concentration 10.0 uM
[7] = molecular target: Calcium/calmodulin-dependent protein kinase type II subunit beta (Homo sapiens) (UniProt Q13554); conditions: Compound concentration 1.0 uM
[8] = molecular target: Cyclin-dependent kinase 1/cyclin B (Homo sapiens) (UniProt P06493+P14635+Q8WWL7+O95067)
[9] = molecular target: AMP-activated protein kinase alpha-2/beta-2/gamma-2 (Homo sapiens) (UniProt P54646+O43741+Q9UGJ0); test: AMPK (A2/B2/G2) Invitrogen Lab (UK) kinase screen (BI); assay type: protein-complex assay; conditions: Compound concentration 1.0 uM
[10] = molecular target: Serine/threonine-protein kinase tousled-like 1 (Homo sapiens) (UniProt Q9UKI8); conditions: Compound concentration 1.0 uM
[11] = molecular target: Serine/threonine-protein kinase 32C (Homo sapiens) (UniProt Q86UX6); conditions: Compound concentration 1.0 uM
[12] = molecular target: RAC-beta serine/threonine-protein kinase (Homo sapiens) (UniProt P31751); test: PKB-BETA DUNDEE kinase screen (BI); conditions: Compound concentration 10.0 uM
[13] = molecular target: Dual specificity testis-specific protein kinase 1 (Homo sapiens) (UniProt Q15569); conditions: Compound concentration 1.0 uM
[14] = molecular target: Sodium-dependent serotonin transporter (Homo sapiens) (UniProt P31645); conditions: Compound concentration 10.0 uM
[15] = molecular target: Tyrosine-protein kinase HCK (Homo sapiens) (UniProt P08631); conditions: Compound concentration 1.0 uM
[16] = molecular target: D(3) dopamine receptor (Homo sapiens) (UniProt P35462); conditions: Compound concentration 10.0 uM
[17] = molecular target: Voltage-dependent N-type calcium channel subunit alpha-1B (Rattus norvegicus) (UniProt Q02294); test: CA+/N/RA Eurofins SafetyScreen44 (BI); conditions: Compound concentration 10.0 uM
[18] = molecular target: Serine/threonine-protein kinase ICK (Homo sapiens) (UniProt Q9UPZ9); conditions: Compound concentration 1.0 uM
[19] = molecular target: Vascular endothelial growth factor receptor 1 (Homo sapiens) (UniProt P17948); conditions: Compound concentration 1.0 uM
[20] = molecular target: Serine/threonine-protein kinase tousled-like 2 (Homo sapiens) (UniProt Q86UE8); conditions: Compound concentration 1.0 uM
[21] = molecular target: Fibroblast growth factor receptor 4 (Homo sapiens) (UniProt P22455); conditions: Compound concentration 1.0 uM
[22] = molecular target: Beta-3 adrenergic receptor (Homo sapiens) (UniProt P13945); conditions: Compound concentration 10.0 uM
[23] = molecular target: Macrophage colony-stimulating factor 1 receptor (Homo sapiens) (UniProt P07333)
[24] = molecular target: Serine/threonine-protein kinase D1 (Homo sapiens) (UniProt Q15139); test: PRKD1 Invitrogen Lab (UK) kinase screen (BI); conditions: Compound concentration 1.0 uM
[25] = molecular target: 5-hydroxytryptamine receptor 5A (Homo sapiens) (UniProt P47898); conditions: Compound concentration 10.0 uM
[26] = molecular target: Mitogen-activated protein kinase 3 (Homo sapiens) (UniProt P27361); conditions: Compound concentration 1.0 uM
[27] = molecular target: Calcium/calmodulin-dependent protein kinase type 1 (Homo sapiens) (UniProt Q14012); conditions: Compound concentration 1.0 uM
[28] = molecular target: Serine/threonine-protein kinase DCLK2 (Homo sapiens) (UniProt Q8N568); conditions: Compound concentration 1.0 uM
[29] = molecular target: Dual specificity tyrosine-phosphorylation-regulated kinase 2 (Homo sapiens) (UniProt Q92630); test: DYRK2 Invitrogen Lab (UK) kinase screen (BI); conditions: Compound concentration 1.0 uM
[30] = molecular target: Dual specificity mitogen-activated protein kinase kinase 5 (Homo sapiens) (UniProt Q13163); test: MAP2K5 Invitrogen Lab (UK) kinase screen (BI); conditions: Compound concentration 1.0 uM
[31] = molecular target: Bone morphogenetic protein receptor type-2 (Homo sapiens) (UniProt Q13873); test: BMPR2 Invitrogen Lab (UK) kinase screen (BI); conditions: Compound concentration 1.0 uM
[32] = molecular target: Mitogen-activated protein kinase 8 (Homo sapiens) (UniProt P45983)
[33] = molecular target: PAS domain-containing serine/threonine-protein kinase (Homo sapiens) (UniProt Q96RG2); test: PASK Invitrogen Lab (UK) kinase screen (BI); conditions: Compound concentration 1.0 uM
[34] = molecular target: 5-hydroxytryptamine receptor 3A (Homo sapiens) (UniProt P46098); conditions: Compound concentration 10.0 uM
[35] = molecular target: Mitogen-activated protein kinase 11 (Homo sapiens) (UniProt Q15759); conditions: Compound concentration 1.0 uM
[36] = molecular target: Interleukin-1 receptor-associated kinase 3 (Homo sapiens, UniProt Q9Y616); test: Dose response measurement (IRAK3)
[37] = molecular target: Serine/threonine-protein kinase pim-2 (Homo sapiens) (UniProt Q9P1W9); conditions: Compound concentration 10.0 uM
[38] = molecular target: Serine/threonine-protein kinase MARK2 (Homo sapiens) (UniProt Q7KZI7)
[39] = molecular target: MAP kinase-activated protein kinase 3 (Homo sapiens) (UniProt Q16644); test: MAPKAP-K3 DUNDEE kinase screen (BI); conditions: Compound concentration 10.0 uM
[40] = molecular target: Cyclin-dependent kinase 9 (Homo sapiens) (UniProt P50750); test: CDK9CYCLIN Invitrogen Lab (UK) kinase screen (BI); conditions: Compound concentration 1.0 uM
[41] = molecular target: G protein-coupled receptor kinase 4 (Homo sapiens) (UniProt P32298); conditions: Compound concentration 1.0 uM
[42] = molecular target: Cyclin-dependent kinase 9 (Homo sapiens) (UniProt P50750); conditions: Compound concentration 1.0 uM

Macrophage colony-stimulating factor 1 receptor (Homo sapiens), sequence (P07333 whole entry): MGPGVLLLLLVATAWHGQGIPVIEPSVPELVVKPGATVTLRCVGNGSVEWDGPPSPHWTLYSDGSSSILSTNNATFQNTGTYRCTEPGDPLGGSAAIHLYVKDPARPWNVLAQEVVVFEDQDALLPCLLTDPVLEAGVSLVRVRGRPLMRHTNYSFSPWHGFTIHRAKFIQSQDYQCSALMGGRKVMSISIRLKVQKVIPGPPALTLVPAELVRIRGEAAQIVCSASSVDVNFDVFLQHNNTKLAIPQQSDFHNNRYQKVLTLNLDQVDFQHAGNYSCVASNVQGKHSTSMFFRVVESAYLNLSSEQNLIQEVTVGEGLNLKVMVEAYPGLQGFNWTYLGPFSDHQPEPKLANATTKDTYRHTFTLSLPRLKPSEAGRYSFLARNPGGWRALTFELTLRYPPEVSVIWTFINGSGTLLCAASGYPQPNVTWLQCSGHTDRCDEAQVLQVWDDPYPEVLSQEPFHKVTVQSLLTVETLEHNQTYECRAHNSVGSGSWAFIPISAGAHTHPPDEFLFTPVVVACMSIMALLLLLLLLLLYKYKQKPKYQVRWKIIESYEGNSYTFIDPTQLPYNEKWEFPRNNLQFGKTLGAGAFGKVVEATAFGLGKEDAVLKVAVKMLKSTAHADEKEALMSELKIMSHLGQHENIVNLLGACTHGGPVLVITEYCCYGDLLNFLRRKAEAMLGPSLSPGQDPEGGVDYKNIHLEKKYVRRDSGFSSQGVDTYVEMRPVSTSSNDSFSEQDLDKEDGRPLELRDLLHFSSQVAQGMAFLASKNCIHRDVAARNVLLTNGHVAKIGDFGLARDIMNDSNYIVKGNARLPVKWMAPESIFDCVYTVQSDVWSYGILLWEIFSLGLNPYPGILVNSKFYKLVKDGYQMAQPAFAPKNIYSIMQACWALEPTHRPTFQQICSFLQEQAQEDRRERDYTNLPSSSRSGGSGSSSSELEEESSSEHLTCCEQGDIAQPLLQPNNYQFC
Serine/threonine-protein kinase MARK2 (Homo sapiens), sequence (Q7KZI7 whole entry): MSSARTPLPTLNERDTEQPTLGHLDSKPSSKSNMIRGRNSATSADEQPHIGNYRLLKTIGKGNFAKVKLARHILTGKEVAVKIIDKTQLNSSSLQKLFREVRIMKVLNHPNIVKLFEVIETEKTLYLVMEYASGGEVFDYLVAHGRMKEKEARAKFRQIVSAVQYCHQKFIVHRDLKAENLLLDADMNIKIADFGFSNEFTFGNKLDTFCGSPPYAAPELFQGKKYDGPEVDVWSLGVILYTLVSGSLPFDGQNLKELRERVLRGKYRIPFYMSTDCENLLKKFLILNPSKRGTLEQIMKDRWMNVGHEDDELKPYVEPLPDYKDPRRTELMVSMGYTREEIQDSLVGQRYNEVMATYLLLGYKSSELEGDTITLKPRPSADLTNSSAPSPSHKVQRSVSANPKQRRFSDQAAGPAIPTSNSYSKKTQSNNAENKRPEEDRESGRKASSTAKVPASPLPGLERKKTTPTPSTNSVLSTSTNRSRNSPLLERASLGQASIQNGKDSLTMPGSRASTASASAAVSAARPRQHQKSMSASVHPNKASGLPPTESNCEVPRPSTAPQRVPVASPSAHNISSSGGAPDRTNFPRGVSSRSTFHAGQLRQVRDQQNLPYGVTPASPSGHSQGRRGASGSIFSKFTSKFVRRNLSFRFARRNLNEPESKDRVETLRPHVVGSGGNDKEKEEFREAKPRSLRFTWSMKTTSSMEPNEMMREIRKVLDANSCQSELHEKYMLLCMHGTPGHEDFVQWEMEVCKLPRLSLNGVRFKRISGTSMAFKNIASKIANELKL
Mitogen-activated protein kinase 8 (Homo sapiens), sequence (P45983 whole entry, the tested form may be a part): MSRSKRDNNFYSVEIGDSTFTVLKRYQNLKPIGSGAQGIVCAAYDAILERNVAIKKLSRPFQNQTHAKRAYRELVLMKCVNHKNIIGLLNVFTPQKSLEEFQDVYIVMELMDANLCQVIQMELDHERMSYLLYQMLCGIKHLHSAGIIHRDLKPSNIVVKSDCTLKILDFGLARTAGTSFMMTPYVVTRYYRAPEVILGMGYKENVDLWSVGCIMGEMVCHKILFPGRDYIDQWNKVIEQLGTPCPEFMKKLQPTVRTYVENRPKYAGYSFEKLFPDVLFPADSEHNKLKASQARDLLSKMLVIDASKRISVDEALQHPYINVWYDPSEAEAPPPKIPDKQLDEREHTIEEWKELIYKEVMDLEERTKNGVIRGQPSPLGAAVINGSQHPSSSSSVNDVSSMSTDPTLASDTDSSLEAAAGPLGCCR
Cyclin-dependent kinase 9 (Homo sapiens), sequence (P50750 whole entry): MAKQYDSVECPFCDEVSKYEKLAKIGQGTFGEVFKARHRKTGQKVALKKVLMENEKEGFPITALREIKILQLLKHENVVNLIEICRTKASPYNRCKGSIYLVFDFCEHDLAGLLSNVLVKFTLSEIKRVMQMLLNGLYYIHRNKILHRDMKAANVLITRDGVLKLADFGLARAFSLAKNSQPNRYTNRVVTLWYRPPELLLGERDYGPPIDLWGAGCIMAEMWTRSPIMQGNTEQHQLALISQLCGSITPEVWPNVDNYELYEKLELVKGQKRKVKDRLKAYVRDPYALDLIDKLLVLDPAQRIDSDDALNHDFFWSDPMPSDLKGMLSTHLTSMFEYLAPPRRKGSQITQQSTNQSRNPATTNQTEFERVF
Serine/threonine-protein kinase pim-2 (Homo sapiens), sequence (Q9P1W9 whole entry, looked up): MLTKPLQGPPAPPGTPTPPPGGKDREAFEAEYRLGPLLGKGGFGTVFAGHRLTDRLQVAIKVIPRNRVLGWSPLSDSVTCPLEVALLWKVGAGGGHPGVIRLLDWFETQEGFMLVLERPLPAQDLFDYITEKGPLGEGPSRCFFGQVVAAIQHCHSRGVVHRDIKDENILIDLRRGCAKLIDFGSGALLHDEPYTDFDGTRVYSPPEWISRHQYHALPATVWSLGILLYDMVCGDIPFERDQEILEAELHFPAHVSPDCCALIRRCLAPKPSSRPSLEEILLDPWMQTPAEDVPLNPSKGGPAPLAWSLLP
Calcium/calmodulin-dependent protein kinase type II subunit beta (Homo sapiens), sequence (Q13554 whole entry): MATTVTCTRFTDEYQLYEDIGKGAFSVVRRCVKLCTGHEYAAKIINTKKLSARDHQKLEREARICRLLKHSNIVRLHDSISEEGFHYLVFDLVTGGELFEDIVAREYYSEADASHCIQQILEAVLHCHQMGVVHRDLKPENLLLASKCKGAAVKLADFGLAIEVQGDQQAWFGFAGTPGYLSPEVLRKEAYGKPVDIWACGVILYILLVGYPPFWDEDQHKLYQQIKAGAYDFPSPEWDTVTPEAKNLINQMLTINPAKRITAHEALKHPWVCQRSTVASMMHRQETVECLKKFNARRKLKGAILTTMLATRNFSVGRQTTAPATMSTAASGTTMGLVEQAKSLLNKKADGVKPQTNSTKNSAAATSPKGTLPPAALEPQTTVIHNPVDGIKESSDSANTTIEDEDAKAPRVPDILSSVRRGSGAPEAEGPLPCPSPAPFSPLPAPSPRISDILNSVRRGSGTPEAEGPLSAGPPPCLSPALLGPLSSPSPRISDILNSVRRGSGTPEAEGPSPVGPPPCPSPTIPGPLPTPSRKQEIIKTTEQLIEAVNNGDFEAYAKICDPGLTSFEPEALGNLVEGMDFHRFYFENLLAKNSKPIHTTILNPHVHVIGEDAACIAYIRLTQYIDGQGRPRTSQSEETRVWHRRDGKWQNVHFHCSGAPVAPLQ
Ephrin type-A receptor 3 (Homo sapiens), sequence (P29320 whole entry): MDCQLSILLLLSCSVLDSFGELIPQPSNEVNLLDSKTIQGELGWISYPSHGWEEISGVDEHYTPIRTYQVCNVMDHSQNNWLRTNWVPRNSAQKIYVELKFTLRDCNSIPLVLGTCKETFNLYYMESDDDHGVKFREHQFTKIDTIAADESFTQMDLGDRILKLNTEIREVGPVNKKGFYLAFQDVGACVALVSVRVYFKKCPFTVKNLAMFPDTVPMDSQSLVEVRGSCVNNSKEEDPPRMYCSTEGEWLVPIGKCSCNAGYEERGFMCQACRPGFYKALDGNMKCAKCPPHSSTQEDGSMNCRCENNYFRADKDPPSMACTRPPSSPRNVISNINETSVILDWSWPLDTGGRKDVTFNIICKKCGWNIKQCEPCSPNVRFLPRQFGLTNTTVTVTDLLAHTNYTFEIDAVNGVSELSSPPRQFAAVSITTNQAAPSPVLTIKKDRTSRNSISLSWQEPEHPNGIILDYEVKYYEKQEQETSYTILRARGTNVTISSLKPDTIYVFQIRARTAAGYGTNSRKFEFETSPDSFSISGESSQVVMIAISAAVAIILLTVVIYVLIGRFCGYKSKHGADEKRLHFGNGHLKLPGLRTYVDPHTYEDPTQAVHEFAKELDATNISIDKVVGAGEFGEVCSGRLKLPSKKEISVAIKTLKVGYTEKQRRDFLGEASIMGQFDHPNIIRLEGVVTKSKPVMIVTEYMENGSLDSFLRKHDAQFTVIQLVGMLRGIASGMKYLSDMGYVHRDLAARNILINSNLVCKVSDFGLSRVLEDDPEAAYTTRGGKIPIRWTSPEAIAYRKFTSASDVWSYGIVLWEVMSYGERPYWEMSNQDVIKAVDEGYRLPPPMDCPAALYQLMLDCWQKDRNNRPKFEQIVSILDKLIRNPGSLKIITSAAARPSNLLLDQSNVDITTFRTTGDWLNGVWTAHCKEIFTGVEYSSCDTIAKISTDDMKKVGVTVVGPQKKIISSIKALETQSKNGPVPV
5-hydroxytryptamine receptor 3A (Homo sapiens), sequence (P46098 whole entry): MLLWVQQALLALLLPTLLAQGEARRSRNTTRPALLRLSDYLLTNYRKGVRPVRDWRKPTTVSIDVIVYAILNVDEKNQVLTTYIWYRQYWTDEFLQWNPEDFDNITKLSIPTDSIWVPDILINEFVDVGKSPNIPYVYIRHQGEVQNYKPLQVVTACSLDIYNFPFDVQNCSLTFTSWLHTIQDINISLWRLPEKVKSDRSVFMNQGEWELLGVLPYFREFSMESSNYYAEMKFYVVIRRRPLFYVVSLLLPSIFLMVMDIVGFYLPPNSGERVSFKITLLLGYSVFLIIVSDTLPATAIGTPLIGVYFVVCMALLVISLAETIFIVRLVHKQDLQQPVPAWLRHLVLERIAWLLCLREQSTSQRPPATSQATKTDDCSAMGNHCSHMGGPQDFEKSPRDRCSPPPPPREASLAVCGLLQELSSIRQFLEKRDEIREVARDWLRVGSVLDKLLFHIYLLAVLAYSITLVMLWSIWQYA

CCC(F)(F)c1cc(N2CCC(S(C)(=O)=O)CC2)nc2sc(C(N)=O)c(N)c12 [BI-605906]
inactive: residual activity [1] 74% | residual activity [2] 90% | residual activity [3] 90.1% | residual activity [4] 85% | residual activity [5] 86% | residual activity [6] 72.4% | residual activity [7] 99% | residual activity ([8]; Compound concentration 1.0 uM) 92% | residual activity ([8]; Compound concentration 10.0 uM) 94% | residual activity [9] 88% | residual activity [10] 91% | residual activity [11] 99% | residual activity [12] 98.1% | residual activity [13] 92% | residual activity [14] 108% | residual activity [15] 90% | residual activity [17] 86% | residual activity [18] 96% | residual activity [19] 100% | residual activity [20] 98% | residual activity [21] 96% | inhibition [22] 18% | residual activity ([23]; Compound concentration 1.0 uM) 58% | residual activity [24] 83% | inhibition [25] 6.16% | residual activity [26] 100% | residual activity [27] 109% | residual activity [28] 101% | residual activity [29] 62% | residual activity [30] 107% | residual activity [31] 65% | residual activity ([32]; Compound concentration 1.0 uM) 91% | residual activity ([32]; Compound concentration 10.0 uM) 100% | residual activity [33] 106% | inhibition [34] -5.46% | residual activity [35] 98% | residual activity [37] 101% | residual activity ([38]; Compound concentration 1.0 uM) 90% | residual activity ([38]; Compound concentration 10.0 uM) 87% | residual activity [39] 90.2% | residual activity [40] 86% | residual activity [41] 100% | residual activity [42] 91%
active: inhibition [16] 51.5% | residual activity ([23]; Compound concentration 10.0 uM) 14%
921 nM (not active): IC50 [36]
